Values quoted from earlier work, collected in patent US20230285429A1, “CANNABINOID ACID FORMULATIONS, DELIVERY SYSTEMS, AND METHODS OF USE” (Flora Growth U.S. Holdings Corp., priority 2022, published 2023).

How the values were obtained:
[1] = biological target: spike protein of SARS-CoV-2 (Severe acute respiratory syndrome coronavirus 2, UniProt P0DTC2)
[2] = fatty acids, intestinal lymph

| SMILES | affinity for the spike protein [1] | percentage transported to the lymph system [2] |
| --- | --- | --- |
| C=C(C)[C@@H]1CCC(C)=C[C@H]1c1c(O)cc(CCCCC)c(C(=O)O)c1O [CBDA, cannabidiolic acid] | high affinity | – |
| CCCCCc1cc(O)c(C/C=C(\C)CCC=C(C)C)c(O)c1C(=O)O [CBGA, cannabigerolic acid] | high affinity | – |
| CCCCCCCCCC(=O)O [decanoic] | – | 13% |
| CCCCCCCCCCCC(=O)O [lauric] | – | 28% |
| CCCCC/C=C\C/C=C\CCCCCCCC(=O)O [linoleic] | – | 32% |
